Data reported in the supplement of paper PMC10307832.

Experiments:
Assay in all cases: relative viability (nuclei count vs DMSO), 5 days (fraction); higher = more cells survive
XMD13-2 + Bortezomib = compound: C1CC1C(=O)NC2=NNC3=C2C=CC(=C3)C4=CC(=CC=C4)C(=O)NC5CC5 [XMD13-2] + CC(C)C[C@H](NC(=O)[C@H](Cc1ccccc1)NC(=O)c1cnccn1)B(O)O [Bortezomib] (partner 0.002 µM)
Method in brief: (§1)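 Relative viability divides the nuclei count in treated wells by that in vehicle wells. Lung cancer cell lines were seeded in 1536-well plates, dosed by pin tool the next day, and fixed and stained after 5 days in one step with final 0.05% Triton X-100, 1% formaldehyde and 1 ug/ml Hoechst. Dosing was a single drug or a fixed anchor-drug dose plus five library-drug doses (not always all listed) in √10 steps, and values are medians of duplicate plates imaged at 4×.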

XMD13-2 + Linsitinib = compound: C1CC1C(=O)NC2=NNC3=C2C=CC(=C3)C4=CC(=CC=C4)C(=O)NC5CC5 [XMD13-2] + C[C@]1(O)C[C@@H](c2nc(-c3ccc4ccc(-c5ccccc5)nc4c3)c3c(N)nccn32)C1 [Linsitinib] (partner 1 µM)
Method in brief: as §1

XMD13-2 + Pemetrexed = compound: C1CC1C(=O)NC2=NNC3=C2C=CC(=C3)C4=CC(=CC=C4)C(=O)NC5CC5 [XMD13-2] + Nc1nc2[nH]cc(CCc3ccc(C(=O)N[C@@H](CCC(=O)O)C(=O)O)cc3)c2c(=O)[nH]1 [Pemetrexed] (partner 0.2 µM)
Method in brief: as §1

ALW-II-49-7 + Pictilisib = compound: Cc1ccc(C(=O)Nc2cccc(C(F)(F)F)c2)cc1Nc1cncc(C(N)=O)c1 [ALW-II-49-7] + CS(=O)(=O)N1CCN(Cc2cc3nc(-c4cccc5[nH]ncc45)nc(N4CCOCC4)c3s2)CC1 [Pictilisib] (partner 1 µM)
Method in brief: as §1

| Cell Line | relative viability (XMD13-2 + Bortezomib; first compound 0.05 µM) | relative viability (XMD13-2 + Bortezomib; first compound 0.1581 µM) | relative viability (XMD13-2 + Bortezomib; first compound 0.5 µM) | relative viability (XMD13-2 + Bortezomib; first compound 1.581 µM) | relative viability (XMD13-2 + Bortezomib; first compound 5 µM) | relative viability (XMD13-2 + Linsitinib; first compound 0.05 µM) | relative viability (XMD13-2 + Linsitinib; first compound 0.1581 µM) | relative viability (XMD13-2 + Linsitinib; first compound 0.5 µM) | relative viability (XMD13-2 + Linsitinib; first compound 1.581 µM) | relative viability (XMD13-2 + Linsitinib; first compound 5 µM) | relative viability (XMD13-2 + Pemetrexed; first compound 0.05 µM) | relative viability (XMD13-2 + Pemetrexed; first compound 0.1581 µM) | relative viability (XMD13-2 + Pemetrexed; first compound 0.5 µM) | relative viability (XMD13-2 + Pemetrexed; first compound 1.581 µM) | relative viability (XMD13-2 + Pemetrexed; first compound 5 µM) | relative viability (ALW-II-49-7 + Pictilisib; first compound 0.08 µM) | relative viability (ALW-II-49-7 + Pictilisib; first compound 0.253 µM) | relative viability (ALW-II-49-7 + Pictilisib; first compound 0.8 µM) | relative viability (ALW-II-49-7 + Pictilisib; first compound 2.53 µM) | relative viability (ALW-II-49-7 + Pictilisib; first compound 8 µM) |
| --- | --- | --- | --- | --- | --- | --- | --- | --- | --- | --- | --- | --- | --- | --- | --- | --- | --- | --- | --- | --- |
| LCLC-103H | 1.03 | 1.1 | 1.08 | 1.02 | 1.21 | 1 | 1.1 | 1.25 | 1.18 | 1.14 | 0.421 | 0.473 | 0.471 | 0.483 | 0.461 | 0.544 | 0.859 | 0.692 | 0.67 | 0.546 |
| LOU-NH91 | 0.501 | 0.451 | 0.538 | 0.444 | 0.556 | 0.985 | 0.981 | 0.966 | 0.876 | 1.1 | 0.319 | 0.409 | 0.392 | 0.435 | 0.371 | 0.482 | 0.599 | 0.514 | 0.428 | 0.533 |
| LU99A | 1.2 | 1.06 | 1.12 | 0.992 | 0.718 | 0.609 | 0.552 | 0.591 | 0.445 | 0.463 | 0.208 | 0.203 | 0.189 | 0.213 | 0.187 | 0.323 | 0.325 | 0.297 | 0.325 | 0.293 |
| LXF-289 | 1.06 | 1.04 | 1.07 | 0.976 | 1 | 0.941 | 0.942 | 0.967 | 0.984 | 0.986 | 0.92 | 0.952 | 0.892 | 0.964 | 0.952 | 0.711 | 0.778 | 0.8 | 0.773 | 0.746 |
| NCI-H23 | 1.36 | 0.988 | 1.04 | 0.987 | 1.22 | 0.558 | 0.579 | 0.624 | 0.537 | 0.58 | 0.829 | 0.569 | 0.747 | 0.656 | 0.799 | 0.524 | 0.448 | 0.459 | 0.526 | 0.441 |
| NCI-H322M | 1.34 | 1.29 | 1.3 | 1.28 | 1.54 | 0.963 | 0.864 | 1.07 | 0.891 | 0.891 | 0.659 | 0.614 | 0.579 | – | 0.608 | 0.449 | 0.49 | 0.479 | 0.499 | 0.556 |
| NCI-H441 | 0.652 | 0.49 | 0.524 | 0.464 | 0.594 | 0.771 | 0.415 | 0.558 | 0.64 | 0.398 | 0.298 | 0.24 | 0.233 | 0.234 | 0.263 | 0.439 | 0.382 | 0.49 | 0.458 | 0.378 |
| NCI-H460 | 1.38 | 1.09 | 1.15 | 1.18 | 1.34 | 1.01 | 0.953 | 0.973 | 0.72 | 0.997 | 0.0636 | 0.0622 | 0.0651 | 0.0612 | 0.0633 | 0.443 | 0.337 | 0.357 | 0.431 | 0.4 |
| NCI-H520 | 0.978 | 0.802 | 0.66 | 0.329 | 0.365 | 1.09 | 0.975 | 1.01 | 0.881 | 0.492 | 0.704 | 0.636 | 0.665 | 0.573 | 0.442 | 0.234 | 0.302 | – | 0.264 | 0.259 |
| NCI-H596 | 1.1 | 0.881 | 1.34 | 1.11 | 1.2 | 1.12 | 1.13 | 1.01 | 1.05 | 1.22 | 0.478 | 0.454 | 0.518 | 0.456 | 0.492 | 0.423 | 0.418 | 0.416 | 0.369 | 0.397 |
| NCI-H647 | 1.59 | 1.16 | 1.29 | 1.11 | 0.549 | 1.33 | 1.22 | 1.15 | 1.17 | 1.09 | 0.173 | 0.168 | 0.179 | 0.164 | 0.134 | 0.489 | 0.507 | – | 0.469 | 0.499 |
| NCI-H650 | 0.932 | 0.757 | 0.983 | 0.683 | 0.993 | 0.983 | 0.857 | 0.899 | 0.718 | 0.865 | 0.938 | 0.995 | 1.04 | 0.772 | 0.958 | 0.893 | 0.873 | 0.763 | 0.39 | 0.528 |
| NCI-H661 | 0.86 | 0.805 | 0.846 | 0.626 | 0.587 | 0.67 | 0.708 | 0.58 | 0.555 | 0.398 | 0.936 | 0.927 | 0.873 | 0.916 | 0.838 | 0.377 | 0.345 | 0.348 | – | 0.351 |
| NCI-H838 | 1.15 | 0.886 | 1.03 | 0.81 | 0.986 | 1.14 | 1.03 | 1.05 | 1.06 | 0.985 | 0.249 | 0.226 | 0.263 | 0.251 | 0.254 | 0.342 | 0.464 | 0.432 | 0.46 | 0.393 |
| NCI-H1355 | 1.3 | 1.32 | 1.18 | 1.19 | 1.28 | 0.973 | 0.834 | 0.851 | 0.825 | 0.894 | 1.04 | 1.05 | 1.06 | 1.06 | 1.1 | 0.413 | 0.469 | 0.395 | 0.322 | 0.345 |
| NCI-H1437 | 0.667 | 0.551 | 0.658 | 0.527 | 0.597 | 1.25 | 1.09 | 1.08 | 1.04 | 1.06 | 0.336 | 0.326 | 0.343 | 0.323 | 0.329 | 0.435 | 0.414 | – | 0.432 | 0.399 |
| NCI-H1563 | 0.949 | 0.908 | 0.816 | 0.764 | 0.86 | 1.22 | 1.27 | 1.16 | 1.12 | 1.31 | 0.76 | 0.806 | 0.741 | 0.75 | 0.913 | 0.573 | 0.661 | 0.643 | 0.595 | 0.657 |
| NCI-H1651 | 1.02 | 0.914 | 0.946 | 0.92 | 0.965 | 0.964 | 0.961 | 1.05 | 1.07 | 1.01 | 0.607 | 0.56 | 0.577 | 0.647 | 0.775 | 0.525 | 0.38 | 0.329 | 0.491 | 0.572 |
| NCI-H1666 | 0.893 | 0.838 | 1.02 | 0.763 | 0.468 | 0.869 | 0.804 | 0.741 | 0.818 | 0.86 | 0.863 | 0.919 | 0.875 | 0.884 | 0.946 | 0.639 | 0.578 | 0.406 | 0.477 | 0.501 |
| NCI-H1734 | 1.35 | 0.954 | 0.887 | 0.729 | 0.768 | 0.893 | 0.996 | 0.938 | 0.784 | 0.743 | 0.41 | 0.422 | 0.398 | 0.412 | 0.386 | 0.491 | 0.42 | 0.491 | 0.48 | 0.499 |
| NCI-H1755 | 0.992 | 1.02 | 0.984 | 0.934 | 1.03 | 1.04 | 0.942 | 1.06 | 0.963 | 1.02 | 0.418 | 0.455 | 0.473 | 0.456 | 0.396 | 0.377 | 0.531 | 0.421 | 0.352 | 0.307 |
| NCI-H1792 | 1.16 | 0.996 | 1 | 0.927 | 1.15 | 0.631 | 0.519 | 0.586 | 0.661 | 0.515 | 1.16 | 0.694 | 0.922 | 0.75 | 1.14 | 0.232 | 0.21 | 0.215 | 0.183 | 0.258 |
| NCI-H1915 | 1.06 | 1.01 | 1.01 | 0.979 | 1.01 | 1.15 | 1.13 | 1.07 | 1.1 | 1.09 | 0.504 | 0.509 | 0.544 | 0.504 | 0.513 | 0.945 | 1.18 | 0.966 | 0.818 | 0.645 |
| NCI-H1975 | 0.45 | 0.384 | 0.345 | 0.392 | 0.445 | 1.08 | 0.926 | 0.968 | 0.972 | 1.07 | 0.295 | 0.286 | 0.295 | 0.316 | 0.305 | 0.282 | 0.308 | 0.232 | 0.287 | 0.281 |
| NCI-H1993 | 1.42 | 1.08 | 1.02 | 0.972 | 1.04 | 0.807 | 0.78 | 0.731 | 0.743 | 0.694 | 0.62 | 0.619 | 0.613 | 0.643 | 0.555 | 0.79 | 1.01 | 0.746 | 0.807 | 0.619 |
| NCI-H2009 | 1.05 | 1.12 | 1.4 | 1.02 | 1.01 | 1.19 | 1.19 | 1.13 | 1.2 | 1.16 | 1.01 | 1.1 | 1.01 | 1.01 | 1.07 | 0.836 | 0.828 | 0.783 | 0.575 | 0.438 |
| NCI-H2023 | 1.16 | 0.928 | 1.06 | 0.986 | 0.983 | 0.697 | 0.684 | 0.572 | 0.649 | 0.854 | 0.261 | 0.206 | 0.195 | 0.242 | 0.246 | 0.244 | 0.206 | 0.251 | 0.221 | 0.217 |
